Reference: US20220041559A1, “BENZO-AND PYRIDO-PYRAZOLES AS PROTEIN KINASE INHIBITORS” (ROTTAPHARM BIOTECH S.R.L., priority 2019, published 2022)
pIC50: −log10 of the molar value.

molecular target: T1, FYN (Homo sapiens, UniProt P06241); experiment: Z'-LYTE in vitro kinase assay, FYN kinase inhibition; format: biochemical; conditions: Table 17
T1 construct: purchased CarnaBioscience
Experimental: Assays to determine the kinase inhibitory activity of compounds were performed using an automatic liquid handling device (Microlab STAR Hamilton) and Z′-LYTE™ Kinase Assay Platform (Invitrogen), a Fluorescence Resonance Energy Transfer (FRET)-based assay platform compatible with high-throughput screening (HTS) applications. The assay employs a fluorescence-based, coupled-enzyme format and utilizes the differential sensitivity of phosphorylated and non-phosphorylated peptides to proteolytic cleavage.
Test compounds were evaluated towards active FYN (CarnaBioscience). The enzyme was incubated in a 384 low-volume microplate with a synthetic peptide-substrate, ATP and different inhibitor concentrations, ranging from 10^−10 M up to 10^−5 M final concentration. Samples representing the 0% inhibition (or total enzymatic activity) were in the presence of compound diluent (1% DMSO final) in Reaction Buffer (50 mM Hepes, 10 mM MgCl2, 1 mM EGTA, 0.01% Brij-35, pH 7.5).
A near-Km ATP concentrations for the kinase and an optimal enzyme concentration that phosphorylates 20-40% of the Z′-LYTE™ Tyr 2 Peptide in a one-hour incubation, were selected. All reagents were diluted in reaction buffer and the kinase reaction was carried out in a total volume of 10 μl, for 60 minutes at 25° C. The 0% Phosphorylation (i.e. no ATP) and 100% Phosphorylation (i.e. synthetically phosphorylated peptide supplied) Assay Controls, included in each plate, allowed to calculate the percent phosphorylation achieved in the specific reaction well. The 0% Inhibition and 0% Phosphorylation (i.e. 100% Inhibition) Controls define the dynamic range in the screen. At the end of incubation, a secondary reaction (the Development Reaction) started by adding 5 μl of Development Reagent, containing a site-specific protease that recognizes and cleaves non-phosphorylated peptides, and was interrupted after 60 minutes with 5 μl/sample of Stop Reagent. Measurement of the Coumarin (Ex. 400 nm, Em. 460 nm) and Fluorescein (Ex. 400 nm, Em. 535 nm) emission signals were performed by a fluorescence plate reader (Envision, PerkinElmer).
Results are expressed as percentage of inhibition and the IC50 values were calculated by non-linear curve fitting using GraphPad™ Prism software.

T1 sequence (P06241 whole entry): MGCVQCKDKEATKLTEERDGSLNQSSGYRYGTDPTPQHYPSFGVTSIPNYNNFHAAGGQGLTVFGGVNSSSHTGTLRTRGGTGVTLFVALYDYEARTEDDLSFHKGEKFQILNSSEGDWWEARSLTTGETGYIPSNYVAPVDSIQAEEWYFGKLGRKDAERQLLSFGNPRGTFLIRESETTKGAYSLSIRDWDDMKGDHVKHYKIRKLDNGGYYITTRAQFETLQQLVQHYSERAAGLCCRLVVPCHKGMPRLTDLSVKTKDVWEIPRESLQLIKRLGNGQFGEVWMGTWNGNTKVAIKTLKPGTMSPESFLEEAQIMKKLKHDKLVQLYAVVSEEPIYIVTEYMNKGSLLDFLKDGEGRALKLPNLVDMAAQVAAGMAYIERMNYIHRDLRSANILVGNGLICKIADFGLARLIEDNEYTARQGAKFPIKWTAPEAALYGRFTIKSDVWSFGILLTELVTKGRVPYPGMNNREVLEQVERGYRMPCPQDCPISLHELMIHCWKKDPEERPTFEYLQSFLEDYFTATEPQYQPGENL

Row | FYN kinase inhibition, result in words | SMILES
1 | more active | Cc1cccc(F)c1Nc1ccc2c(NC(=O)c3ccc(C4CCN(C)CC4)cc3)n[nH]c2c1 [Compound 11, N-(6-((2-fluoro-6-methylphenyl)amino)-1H-indazol-3-yl)-4-(1-methylpiperidin-4-yl)benzamide]
2 | more active | CN1CCC(c2ccc(C(=O)Nc3n[nH]c4cc(Nc5c(F)ccc6c5OCO6)ccc34)cc2)CC1 [Compound 15, N-(6-((5-fluorobenzo[d][1,3]dioxol-4-yl)amino)-1H-indazol-3-yl)-4-(1-methylpiperidin-4-yl)benzamide]

same assay, conditions: near-Km ATP, 60 minutes at 25° C.

Row | SMILES | pIC50
3 | O=C(Nc1n[nH]c2cc(Nc3ccccc3F)ccc12)c1ccc(C2CCN(C3COC3)CC2)cc1 [Compound 7, N-(6-((2-fluorophenyl)amino)-1H-indazol-3-yl)-4-(1-(oxetan-3-yl)piperidin-4-yl)benzamide] | 6.33
4 | Cc1cccc(F)c1Nc1ccc2c(NC(=O)c3ccc(C4CCN(C)CC4)cc3)n[nH]c2c1 [Compound 11, N-(6-((2-fluoro-6-methylphenyl)amino)-1H-indazol-3-yl)-4-(1-methylpiperidin-4-yl)benzamide] | 7.33
5 | CN1CCC(c2ccc(C(=O)Nc3n[nH]c4nc(Nc5ccc(F)cc5F)ccc34)cc2)CC1 [Compound 22, N-(6-((2,4-difluorophenyl)amino)-1H-pyrazolo[3,4-b]pyridin-3-yl)-4-(1-methylpiperidin-4-yl)benzamide] | 6.55
6 | CN1CC[C@@H](c2ccc(C(=O)Nc3n[nH]c4cc(Nc5ccccc5F)ccc34)cc2)[C@@H](F)C1 (single isomer, unassigned) [Compound 3] | 6.51
7 | CN1CCC(c2ccc(C(=O)Nc3n[nH]c4cc(Nc5ccc(Cl)cc5F)ccc34)cc2)CC1 [Compound 12, N-(6-((4-chloro-2-fluorophenyl)amino)-1H-indazol-3-yl)-4-(1-methylpiperidin-4-yl)benzamide] | 6.66
8 | CN1CC[C@@H](c2ccc(C(=O)Nc3n[nH]c4cc(Nc5ccccc5F)ccc34)cc2)[C@@H](F)C1 (single isomer, unassigned) [Compound 4] | 6.69
9 | CC(C)N1CCC(c2ccc(C(=O)Nc3n[nH]c4nc(Nc5ccccc5F)ccc34)cc2)CC1 [Compound 24, N-(6-((2-fluorophenyl)amino)-1H-pyrazolo[3,4-b]pyridin-3-yl)-4-(1-isopropylpiperidin-4-yl)benzamide] | 6.68
10 | CN1CCC(c2ccc(C(=O)Nc3n[nH]c4nc(Nc5ccccc5Cl)ccc34)cc2)CC1 [Compound 26, N-(6-((2-chlorophenyl)amino)-1H-pyrazolo[3,4-b]pyridin-3-yl)-4-(1-methylpiperidin-4-yl)benzamide] | 6.59
11 | Cc1cccc(F)c1Nc1ccc2c(NC(=O)c3ccc(C4CCN(C)CC4)cc3)n[nH]c2n1 [Compound 21, N-(6-((2-fluoro-6-methylphenyl)amino)-1H-pyrazolo[3,4-b]pyridin-3-yl)-4-(1-methylpiperidin-4-yl)benzamide] | 6.35
12 | CN1CCC(c2ccc(C(=O)Nc3n[nH]c4cc(Nc5cccc(F)c5)ccc34)cc2)CC1 [Compound 19, N-(6-((3-fluorophenyl)amino)-1H-indazol-3-yl)-4-(1-methylpiperidin-4-yl)benzamide] | 6.59
13 | COc1ccccc1Nc1ccc2c(NC(=O)c3ccc(C4CCN(C)CC4)cc3)n[nH]c2n1 [Compound 27, N-(6-((2-methoxyphenyl)amino)-1H-pyrazolo[3,4-b]pyridin-3-yl)-4-(1-methylpiperidin-4-yl)benzamide] | 6.27
14 | CN1CCC(c2ccc(C(=O)Nc3n[nH]c4cc(Nc5c(F)ccc6c5OCO6)ccc34)cc2)CC1 [Compound 15, N-(6-((5-fluorobenzo[d][1,3]dioxol-4-yl)amino)-1H-indazol-3-yl)-4-(1-methylpiperidin-4-yl)benzamide] | 7.72
15 | CN1CCC(c2ccc(C(=O)Nc3n[nH]c4cc(Nc5ccc(F)cc5F)ccc34)cc2)CC1 [Compound 16, N-(6-((2,4-difluorophenyl)amino)-1H-indazol-3-yl)-4-(1-methylpiperidin-4-yl)benzamide] | 7.01
16 | Cc1cccc(Cl)c1Nc1ccc2c(NC(=O)c3ccc(C4CCN(C)CC4)cc3)n[nH]c2c1 [Compound 13, N-(6-((2-choro-6-methylphenyl)amino)-1H-indazol-3-yl)-4-(1-methylpiperidin-4-yl)benzamide] | 6.68
17 | CCc1cccc(F)c1Nc1ccc2c(NC(=O)c3ccc(C4CCN(C)CC4)cc3)n[nH]c2c1 [Compound 2, N-(6-((2-ethyl-6-fluorophenyl)amino)-1H-indazol-3-yl)-4-(1-methylpiperidin-4-yl)benzamide] | 6.50
18 | CN1CCC(c2ccc(C(=O)Nc3n[nH]c4cc(Nc5ccc(F)cc5Cl)ccc34)cc2)CC1 [Compound 9, N-(6-((2-chloro-4-fluorophenyl)amino)-1H-indazol-3-yl)-4-(1-methylpiperidin-4-yl)benzamide] | 6.41
19 | Cc1ccc(Nc2ccc3c(NC(=O)c4ccc(C5CCN(C)CC5)cc4)n[nH]c3c2)cc1 [Compound 18, 4-(1-methylpiperidin-4-yl)-N-(6-(p-tolyamino)-1H-indazol-3-yl)benzamide] | 6.98
20 | CN1CCC(c2ccc(C(=O)Nc3n[nH]c4cc(Nc5ccccc5C(F)(F)F)ccc34)cc2)CC1 [Compound 10, 4-(1-methylpiperidin-4-yl)-N-(6-((2-(trifluoromethyl)phenyl)amino)-1H-indazol-3-yl)benzamide] | 6.19

Results, then the molecule that gave them:

Row | pIC50 | SMILES
21 | 6.83 | CN1CCN(c2ccc(C(=O)Nc3n[nH]c4cc(Nc5ccccc5F)ccc34)cc2)CC1 [Compound 34, N-(6-((2-fluorophenyl)amino)-1H-indazol-3-yl)-4-(4-methylpiperazin-1-yl)benzamide]
22 | 6.43 | CN1CCCC(Oc2ccc(C(=O)Nc3n[nH]c4cc(Nc5ccccc5F)ccc34)cc2)C1 (single isomer, unassigned) [Compound 41]
23 | 6.55 | CN1CCCC(Oc2ccc(C(=O)Nc3n[nH]c4cc(Nc5ccccc5F)ccc34)cc2)C1 (stereo not drawn) [Compound 38, N-(6((2-fluorophenyl)amino)-1H-indazol-3-yl)-4((1-methylpiperidin-3-yl)oxy)benzamide]
24 | 6.08 | CN1CCC(c2ccc(C(=O)Nc3n[nH]c4nc(Nc5c(F)ccc6c5OCO6)ccc34)cc2)CC1 [Compound 49, N-(6((5-fluorobenzo[d][1,3]dioxol-4-yl)amino)-1H-pyrazolo[3,4-b]pyridin-3-yl)-4-(1-methylpiperidin-4-yl)benzamide]
25 | 6.69 | CN1CCC(c2ccc(C(=O)Nc3n[nH]c4cc(Nc5ccccc5F)ccc34)cc2OCC2COC2)CC1 [Compound 42, N-(6-((2-fluorophenyl)amino)-1H-indazol-3-yl)-4-(1-methylpiperidin-4-yl)-3-(oxetan-3-ylmethoxy)benzamide]
26 | 6.70 | CN1CCC(c2ccc(C(=O)Nc3n[nH]c4cc(Nc5ccccc5F)ccc34)c(NC3CCOCC3)c2)CC1 [Compound 53, N-(6-((2-fluorophenyl)amino)-1H-indazol-3-yl)-4-(1-methylpiperidin-4-yl)-2-((tetrahydro-2H-pyran-4-yl)amino)benzamide]
27 | 6.84 | CN1CCC(Oc2ccc(C(=O)Nc3n[nH]c4cc(Nc5ccccc5F)ccc34)cc2)CC1 [Compound 35, N-(6((2-fluorophenyl)amino)-1H-indazol-3-yl)-4((1-methylpiperidin-4-yl)oxy)benzamide]
28 | 6.26 | CN1CCCC(Oc2ccc(C(=O)Nc3n[nH]c4cc(Nc5ccccc5F)ccc34)cc2)C1 (single isomer, unassigned) [Compound 40]
29 | 6.23 | COc1ccc(Nc2ccc3c(NC(=O)c4ccc(C5CCN(C)CC5)cc4)n[nH]c3n2)cc1 [Compound 31, N-(6-((4-methoxyphenyl)amino)-1H-pyrazolo[3,4-b]pyridin-3-yl)-4-(1-methylpiperidin-4-yl)benzamide]
30 | 6.43 | O=C(Nc1n[nH]c2cc(Nc3ccccc3F)ccc12)c1ccc(N2CCOCC2)cc1 [Compound 36, N-(6((2-fluorophenyl)amino)-1H-indazol-3-yl)-4-morpholinobenzamide]
